Experimental data published in BindingDB's records for doi:10.7270/Q2J101NV (Burnham Center For Chemical Genomics, 2010).

Biological target: T1, Alkaline phosphatase, tissue-nonspecific isozyme (Homo sapiens, UniProt P05186)
T1 sequence (P05186 whole entry): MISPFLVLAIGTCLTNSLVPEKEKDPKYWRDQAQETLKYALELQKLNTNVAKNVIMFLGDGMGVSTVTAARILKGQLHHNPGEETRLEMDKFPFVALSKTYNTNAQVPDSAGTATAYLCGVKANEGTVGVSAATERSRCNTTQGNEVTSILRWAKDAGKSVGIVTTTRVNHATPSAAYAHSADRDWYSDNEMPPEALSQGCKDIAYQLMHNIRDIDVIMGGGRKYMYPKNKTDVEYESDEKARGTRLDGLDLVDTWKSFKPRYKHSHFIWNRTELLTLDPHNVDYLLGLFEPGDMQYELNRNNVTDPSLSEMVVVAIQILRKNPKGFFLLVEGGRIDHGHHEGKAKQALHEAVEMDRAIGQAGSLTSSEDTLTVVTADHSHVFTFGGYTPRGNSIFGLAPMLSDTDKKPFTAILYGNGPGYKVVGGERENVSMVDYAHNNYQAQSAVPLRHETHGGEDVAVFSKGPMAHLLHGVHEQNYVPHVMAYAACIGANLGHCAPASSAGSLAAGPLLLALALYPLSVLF
Assay: TNAP enzyme activators, dose response, selectivity assay for mouse IAP activator project, biochemical, TNAP isozyme, mouse IAP uHTS hits (AID 488880)

## CN(CCO)c1ccc(CN=Nc2ccc([N+](=O)[O-])cc2S(=O)(=O)Nc2ccccc2C(=O)O)cc1
  EC50: 19.7 µM

## O=C(NN=CC1=CC(=O)C(=O)CC1)NN=CC1=CC(=O)C(=O)CC1 [1,3-bis[[(Z)-(3-hydroxy-4-oxocyclohexa-2,5-dien-1-ylidene)methyl]amino]urea]
  EC50: 79.4 µM

## O=C1CC(=O)c2c(O)cc(O)c(O)c2C1=O [4,5,7,8-tetrahydroxy-1,2-naphthoquinone]
  EC50: > 100 µM

## C#CCOCCOCCOCCNc1nc(N2CCN(C(=O)CCCCCCCCCCNC(=O)[C@@H](CCC(=O)O)n3cc(CCCCCN)nn3)CC2)nc(N2CCN(C(=O)CCCCCCCCCCNC(=O)[C@H]([C@@H](C)CC)n3cc(CCCCCN)nn3)CC2)n1 [KI-KE]
  EC50: > 100 µM

## Cc1cc(=O)[nH]c(N=NCc2ccc(O)c(O)c2)n1 [MLS001194906]
  EC50: 56.1 µM
